# Experimental data taken from patent US9315503B2, “Kinase inhibitors” (CHIESI FARMACEUTICI S.p.A., priority 2011, dated 2016).
# Structures can show the parent of a compound that is named as a salt.
# Target: T1, p38alpha (Homo sapiens, UniProt Q16539)
# T1 construct: purchased Invitrogen PV3304
# Assay: P38Alpha enzyme inhibition assay (Alphascreen kinase activity assay)
# Type: biochemical
# Details: 100 pM p38alpha, 250 μM ATP, 2 hours pre-incubation at 25° C., read-out: p38α inhibition (IC50 values)
# Protocol: P38Alpha Enzyme Inhibition Assay.
# The inhibitory activity of compounds was determined using an Alphascreen® (Perkin Elmer) based kinase activity assay. Kinase reactions consisted of 25 mM HEPES pH 7.5, 10 mM MgCl2, 100 μM Na3VO4, 2 mM DTT, 0.05 mg/ml Tween 20, 100 pM p38alpha (Invitrogen, PV3304), 1% DMSO and 0.3 μg/ml ATF-2 fusion protein (New England Biolabs, 9224). Compounds were incubated under these conditions for 2 hours, at 25° C., prior to the initiation of the kinase activity by the addition of the 250 μM ATP. Reaction volumes were 20 uL. After 1 hr at 25° C. reactions were stopped by the adding 10 uL of 25 mM HEPES pH 7.5 containing 62.5 mM EDTA, 0.05% Triton X-100, 10% BSA and 0.83 ng/uL anti-phospho-ATF2 antibody (Abeam, ab28812). Detection was performed by measuring luminescence following the addition of Alphascreen Donor beads (Perkin Elmer 6765300) and Protein A Alphascreen Acceptor beads (Perkin Elmer 6760137), both at a final concentration of 20 ug/ml. IC50 values were determined from concentration-response curves.
# T1 sequence (Q16539 whole entry): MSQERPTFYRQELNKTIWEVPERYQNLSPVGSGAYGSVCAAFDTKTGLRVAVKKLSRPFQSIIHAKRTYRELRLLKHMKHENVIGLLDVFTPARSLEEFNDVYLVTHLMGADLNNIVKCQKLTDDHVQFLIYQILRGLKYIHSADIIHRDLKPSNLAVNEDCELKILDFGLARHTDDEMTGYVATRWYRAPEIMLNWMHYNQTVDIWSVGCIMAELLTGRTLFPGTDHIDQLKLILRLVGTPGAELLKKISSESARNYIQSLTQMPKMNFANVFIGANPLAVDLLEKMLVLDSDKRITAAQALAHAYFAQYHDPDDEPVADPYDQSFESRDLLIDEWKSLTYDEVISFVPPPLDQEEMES
row,Structure (SMILES),IC50 [nM]
1,"C[C@@H]1CCC[C@H](C)N1c1nnc2ccc(O[C@@H]3CC[C@H](NC(=O)Nc4cc(C(C)(C)C)nn4-c4cccc(CN5CCCC5)c4)c4ccccc43)cn12 [Example 144, 1-[5-tert-Butyl-2-(3-pyrrolidin-1-ylmethyl-phenyl)-2H-pyrazol-3-yl]-3-{(1S,4R)-4-[3-((2S,6R)-2,6-dimethyl-piperidin-1-yl)-[1,2,4]triazolo[4,3-a]pyridin-6-yloxy]-1,2,3,4-tetrahydro-naphthalen-1-yl}-urea formate salt]",< 10
2,"CN(C)CCOc1cccc(-n2nc(C(C)(C)C)cc2NC(=O)N[C@H]2CC[C@@H](Oc3ccc4nnc(N5CCCCC56CC6)n4c3)c3ccccc32)c1 [Example 148, 1-{(1S,4R)-4-[3-(4-Aza-spiro[2.5]oct-4-yl)-[1,2,4]triazolo[4,3-a]pyridin-6-yloxy]-1,2,3,4-tetrahydro-naphthalen-1-yl}-3-{5-tert-butyl-2-[3-(2-dimethylamino-ethoxy)-phenyl]-2H-pyrazol-3-yl}-urea formate salt]",< 10
3,"C[C@H]1CCCCN1c1nnc2ccc(O[C@@H]3CC[C@H](NC(=O)Nc4cc(C(C)(C)C)nn4-c4cccc(OCCN5CCCC5)c4)c4ccccc43)cn12 [Example 154, 1-{5-tert-Butyl-2-[3-(2-pyrrolidin-1-yl-ethoxy)-phenyl]-2H-pyrazol-3-yl}-3-{(1S,4R)-4-[3-((S)-2-methyl-piperidin-1-yl)-[1,2,4]triazolo[4,3-a]pyridin-6-yloxy]-1,2,3,4-tetrahydro-naphthalen-1-yl}-urea formate salt]",< 10
4,"CCN(CC)CCOc1cccc(-n2nc(C(C)(C)C)cc2NC(=O)N[C@H]2CC[C@@H](Oc3ccc4nnc(N5CCCC[C@@H]5C)n4c3)c3ccccc32)c1 [Example 155, 1-{5-tert-Butyl-2-[3-(2-diethylamino-ethoxy)-phenyl]-2H-pyrazol-3-yl}-3-{(1S,4R)-4-[3-((S)-2-methyl-piperidin-1-yl)-[1,2,4]triazolo[4,3-a]pyridin-6-yloxy]-1,2,3,4-tetrahydro-naphthalen-1-yl}-urea formate salt]",< 10
5,"C[C@H]1CCCCN1c1nnc2ccc(O[C@@H]3CC[C@H](NC(=O)Nc4cc(C(C)(C)C)nn4-c4cccc(OCCN5CCOCC5)c4)c4ccccc43)cn12 [Example 156, 1-{5-tert-Butyl-2-[3-(2-morpholin-4-yl-ethoxy)-phenyl]-2H-pyrazol-3-yl}-3-{(1S,4R)-4-[3-((S)-2-methyl-piperidin-1-yl)-[1,2,4]triazolo[4,3-a]pyridin-6-yloxy]-1,2,3,4-tetrahydro-naphthalen-1-yl}-urea partial formate salt]",< 10
6,"C[C@H]1CCCCN1c1nnc2ccc(O[C@@H]3CC[C@H](NC(=O)Nc4cc(C(C)(C)C)nn4-c4cccc(OCCN5CCCCC5)c4)c4ccccc43)cn12 [Example 157, 1-{5-tert-Butyl-2-[3-(2-piperidin-1-yl-ethoxy)-phenyl]-2H-pyrazol-3-yl}-3-{(1S,4R)-4-[3-((S)-2-methyl-piperidin-1-yl)-[1,2,4]triazolo[4,3-a]pyridin-6-yloxy]-1,2,3,4-tetrahydro-naphthalen-1-yl}-urea formate salt]",< 10
7,"C[C@H]1CCCCN1c1nnc2ccc(O[C@@H]3CC[C@H](NC(=O)Nc4cc(C(C)(C)C)nn4-c4cccc(OCCN5CCN(C)CC5)c4)c4ccccc43)cn12 [Example 158, 1-(5-tert-Butyl-2-{3-[2-(4-methyl-piperazin-1-yl)-ethoxy]-phenyl}-2H-pyrazol-3-yl)-3-{(1S,4R)-4-[3-((S)-2-methyl-piperidin-1-yl)-[1,2,4]triazolo[4,3-a]pyridin-6-yloxy]-1,2,3,4-tetrahydro-naphthalen-1-yl}-urea formate salt]",< 10
8,"C[C@H]1CCCCN1c1nnc2ccc(O[C@@H]3CC[C@H](NC(=O)Nc4cc(C(C)(C)C)nn4-c4cccc(OCCN5CCC(F)CC5)c4)c4ccccc43)cn12 [Example 159, 1-{5-tert-Butyl-2-{3-[2-(4-fluoropiperidin-1-yl)-ethoxy]-phenyl}-2H-pyrazol-3-yl}-3-{(1S,4R)-4-[3-((S)-2-methyl-piperidin-1-yl)-[1,2,4]triazolo[4,3-a]pyridin-6-yloxy]-1,2,3,4-tetrahydro-naphthalen-1-yl}-urea formate salt]",< 10
9,"C[C@H]1CCCCN1c1nnc2ccc(O[C@@H]3CC[C@H](NC(=O)Nc4cc(C(C)(C)C)nn4-c4cccc(OCCN5CCCN(C)CC5)c4)c4ccccc43)cn12 [Example 160, 1-(5-tert-Butyl-2-{3-[2-(4-methyl-[1,4]-diazepan-1-yl)-ethoxy]-phenyl}-2H-pyrazol-3-yl)-3-{(1S,4R)-4-[3-((S)-2-methyl-piperidin-1-yl)-[1,2,4]triazolo[4,3-a]pyridin-6-yloxy]-1,2,3,4-tetrahydro-naphthalen-1-yl}-urea formate salt]",< 10
10,"C[C@H]1CCCCN1c1nnc2ccc(O[C@@H]3CC[C@H](NC(=O)Nc4cc(C(C)(C)C)nn4-c4cccc(OCCN5C6CCCC5CC6)c4)c4ccccc43)cn12 [Example 162, 1-(2-{3-[2-(8-Aza-bicyclo[3.2.1]oct-8-yl)-ethoxy]-phenyl}-5-tert-butyl-2H-pyrazol-3-yl)-3-{(1S,4R)-4-[3-((S)-2-methyl-piperidin-1-yl)-[1,2,4]triazolo[4,3-a]pyridin-6-yloxy]-1,2,3,4-tetrahydro-naphthalen-1-yl}-urea formate salt]",< 10
11,"CCN(C)CCOc1cccc(-n2nc(C(C)(C)C)cc2NC(=O)N[C@H]2CC[C@@H](Oc3ccc4nnc(N5CCCC[C@@H]5C)n4c3)c3ccccc32)c1 [Example 163, 1-(5-tert-Butyl-2-{3-[2-(ethyl-methyl-amino)-ethoxy]-phenyl}-2H-pyrazol-3-yl)-3-{(1S,4R)-4-[3-((S)-2-methyl-piperidin-1-yl)-[1,2,4]triazolo[4,3-a]pyridin-6-yloxy]-1,2,3,4-tetrahydro-naphthalen-1-yl}-urea formate salt]",< 10
12,"COC1CCN(CCOc2cccc(-n3nc(C(C)(C)C)cc3NC(=O)N[C@H]3CC[C@@H](Oc4ccc5nnc(N6CCCC[C@@H]6C)n5c4)c4ccccc43)c2)CC1 [Example 165, 1-(5-tert-Butyl-2-{3-[2-(4-methoxy-piperidin-1-yl-ethoxy]-phenyl}-2H-pyrazol-3-yl)-3-{(1S,4R)-4-[3-((S)-2-methyl-piperidin-1-yl)-[1,2,4]triazolo[4,3-a]pyridin-6-yloxy]-1,2,3,4-tetrahydro-naphthalen-1-yl}-urea formate salt]",< 10
13,"C[C@H]1CCCCN1c1nnc2ccc(O[C@@H]3CC[C@H](NC(=O)Nc4cc(C(C)(C)C)nn4-c4cccc(OCCN5C6CCC5COC6)c4)c4ccccc43)cn12 [Example 166, 1-(5-tert-Butyl-2-{3-[2-(3-oxa-8-aza-bicyclo[3.2.1]oct-8-yl)-ethoxy]-phenyl}-2H-pyrazol-3-yl)-3-{(1S,4R)-4-[3-((S)-2-methyl-piperidin-1-yl)-[1,2,4]triazolo[4,3-a]pyridin-6-yloxy]-1,2,3,4-tetrahydro-naphthalen-1-yl}-urea formate salt]",< 10
14,"COC1CCN(Cc2cccc(-n3nc(C(C)(C)C)cc3NC(=O)N[C@H]3CC[C@@H](Oc4ccc5nnc(N6CCCC[C@@H]6C)n5c4)c4ccccc43)c2)CC1 [Example 167, 1-{5-tert-Butyl-2-[3-(4-methoxy-piperidin-1-ylmethyl)-phenyl]-2H-pyrazol-3-yl}-3-{(1S,4R)-4-[3-((S)-2-methyl-piperidin-1-yl)-[1,2,4]triazolo[4,3-a]pyridin-6-yloxy]-1,2,3,4-tetrahydro-naphthalen-1-yl}-urea formate salt]",< 10
15,"COCCN(C)Cc1cccc(-n2nc(C(C)(C)C)cc2NC(=O)N[C@H]2CC[C@@H](Oc3ccc4nnc(N5CCCC[C@@H]5C)n4c3)c3ccccc32)c1 [Example 168, 1-[5-tert-Butyl-2-(3-{[(2-methoxy-ethyl)-methyl-amino]-methyl}-phenyl)-2H-pyrazol-3-yl]-3-{(1S,4R)-4-[3-((S)-2-methyl-piperidin-1-yl)-[1,2,4]triazolo[4,3-a]pyridin-6-yloxy]-1,2,3,4-tetrahydro-naphthalen-1-yl}-urea formate salt]",< 10
16,"C[C@H]1CCCCN1c1nnc2ccc(O[C@@H]3CC[C@H](NC(=O)Nc4cc(C(C)(C)C)nn4-c4cccc(CN5CCC(F)CC5)c4)c4ccccc43)cn12 [Example 169, 1-{5-tert-Butyl-2-[3-(4-fluoro-piperidin-1-ylmethyl)-phenyl]-2H-pyrazol-3-yl}-3-{(1S,4R)-4-[3-((S)-2-methyl-piperidin-1-yl)-[1,2,4]triazolo[4,3-a]pyridin-6-yloxy]-1,2,3,4-tetrahydro-naphthalen-1-yl}-urea formate salt]",< 10
17,"C[C@H]1CCCCN1c1nnc2ccc(O[C@@H]3CC[C@H](NC(=O)Nc4cc(C(C)(C)C)nn4-c4cccc(CN(C)C)c4)c4ccccc43)cn12 [Example 170, 1-[5-tert-Butyl-2-(3-dimethylaminomethyl-phenyl)-2H-pyrazol-3-yl]-3-{(1S,4R)-4-[3-((S)-2-methyl-piperidin-1-yl)-[1,2,4]triazolo[4,3-a]pyridin-6-yloxy]-1,2,3,4-tetrahydro-naphthalen-1-yl}-urea formate salt]",< 10
